Laboratory results taken from ChEMBL document CHEMBL4219190, “Studies on synthesis of novel pyrido[2,3-d]pyrimidine derivatives, evaluation of their antimicrobial activity and molecular docking” (Bioorg Med Chem Lett, 2018).
Converted amounts (≈) assume the structure as drawn. The source made the active and inactive calls. No cut-off for these calls is given here.

What was measured:
[1] = test system: Bacillus subtilis; assay: Bactericidal activity against Bacillus subtilis MTCC 121 incubated for 24 hrs followed by transfer of microbial suspension to Mueller Hinton agar plates and measured after 24 hrs post transfer; type: functional; conditions: MTCC 121, 24 h
[2] = test system: Bacillus subtilis; assay: Antibacterial activity against Bacillus subtilis MTCC 121 after 24 hrs by well diffusion method; type: functional; conditions: MTCC 121, 24 h
[3] = test system: Staphylococcus aureus; assay: Antibacterial activity against Staphylococcus aureus MTCC 96 after 24 hrs by well diffusion method; type: functional; conditions: MTCC 96, 24 h
[4] = test system: Staphylococcus aureus; assay: Antibacterial activity against Staphylococcus aureus MLS16 MTCC 2940 after 24 hrs by well diffusion method; type: functional; conditions: MLS16 MTCC 2940, 24 h
[5] = test system: Micrococcus luteus; assay: Antibacterial activity against Micrococcus luteus MTCC 2470 after 24 hrs by well diffusion method; type: functional; conditions: MTCC 2470, 24 h
[6] = test system: Raoultella planticola; assay: Antibacterial activity against Klebsiella planticola MTCC 530 after 24 hrs by well diffusion method; type: functional; conditions: MTCC 530, 24 h
[7] = test system: Escherichia coli; assay: Antibacterial activity against Escherichia coli MTCC 739 after 24 hrs by well diffusion method; type: functional; conditions: MTCC 739, 24 h
[8] = test system: Pseudomonas aeruginosa; assay: Antibacterial activity against Pseudomonas aeruginosa MTCC 2453 after 24 hrs by well diffusion method; type: functional; conditions: MTCC 2453, 24 h
[9] = test system: Staphylococcus aureus; assay: Bactericidal activity against Staphylococcus aureus MTCC 96 incubated for 24 hrs followed by transfer of microbial suspension to Mueller Hinton agar plates and measured after 24 hrs post transfer; type: functional; conditions: MTCC 96, 24 h
[10] = test system: Staphylococcus aureus; assay: Bactericidal activity against Staphylococcus aureus MLS16 MTCC 2940 incubated for 24 hrs followed by transfer of microbial suspension to Mueller Hinton agar plates and measured after 24 hrs post transfer; type: functional; conditions: MLS16 MTCC 2940, 24 h
[11] = test system: Micrococcus luteus; assay: Bactericidal activity against Micrococcus luteus MTCC 2470 incubated for 24 hrs followed by transfer of microbial suspension to Mueller Hinton agar plates and measured after 24 hrs post transfer; type: functional; conditions: MTCC 2470, 24 h
[12] = test system: Raoultella planticola; assay: Bactericidal activity against Klebsiella planticola MTCC 530 incubated for 24 hrs followed by transfer of microbial suspension to Mueller Hinton agar plates and measured after 24 hrs post transfer; type: functional; conditions: MTCC 530, 24 h
[13] = test system: Escherichia coli; assay: Bactericidal activity against Escherichia coli MTCC 739 incubated for 24 hrs followed by transfer of microbial suspension to Mueller Hinton agar plates and measured after 24 hrs post transfer; type: functional; conditions: MTCC 739, 24 h
[14] = test system: Pseudomonas aeruginosa; assay: Bactericidal activity against Pseudomonas aeruginosa MTCC 2453 incubated for 24 hrs followed by transfer of microbial suspension to Mueller Hinton agar plates and measured after 24 hrs post transfer; type: functional; conditions: MTCC 2453, 24 h
[15] = test system: Candida albicans; assay: Antifungal activity against Candida albicans MTCC 183 after 24 hrs by well diffusion method; type: functional; conditions: MTCC 183, 24 h
[16] = test system: Candida albicans; assay: Antifungal activity against Candida albicans MTCC 227 after 24 hrs by well diffusion method; type: functional; conditions: MTCC 227, 24 h
[17] = test system: Candida albicans; assay: Antifungal activity against Candida albicans MTCC 854 after 24 hrs by well diffusion method; type: functional; conditions: MTCC 854, 24 h
[18] = test system: Candida albicans; assay: Antifungal activity against Candida albicans MTCC 1637 after 24 hrs by well diffusion method; type: functional; conditions: MTCC 1637, 24 h
[19] = test system: Candida albicans; assay: Antifungal activity against Candida albicans MTCC 3018 after 24 hrs by well diffusion method; type: functional
[20] = test system: Candida albicans; assay: Antifungal activity against Candida albicans MTCC 3017 after 24 hrs by well diffusion method; type: functional; conditions: MTCC 3017, 24 h
[21] = test system: Candida albicans; assay: Antifungal activity against Candida albicans MTCC 3958 after 24 hrs by well diffusion method; type: functional
[22] = test system: Candida albicans; assay: Antifungal activity against Candida albicans MTCC 4748 after 24 hrs by well diffusion method; type: functional
[23] = test system: Candida albicans; assay: Antifungal activity against Candida albicans MTCC 7315 after 24 hrs by well diffusion method; type: functional; conditions: MTCC 7315, 24 h
[24] = test system: Candida parapsilosis; assay: Antifungal activity against Candida parapsilosis MTCC 1744 after 24 hrs by well diffusion method; type: functional; conditions: MTCC 1744, 24 h
[25] = test system: [Candida] aaseri; assay: Antifungal activity against Candida aaseri MTCC 1962 after 24 hrs by well diffusion method; type: functional; conditions: Yamadazyma aaseri, MTCC 1962, 24 h
[26] = test system: Nakaseomyces glabratus; assay: Antifungal activity against Candida glabrata MTCC 3019 after 24 hrs by well diffusion method; type: functional; conditions: MTCC 3019, 24 h
[27] = test system: Pichia kudriavzevii; assay: Antifungal activity against Candida krusei MTCC 3020 after 24 hrs by well diffusion method; type: functional
[28] = test system: Pichia sporocuriosa; assay: Antifungal activity against Issatchenkia hanoiensis MTCC 4755 after 24 hrs by well diffusion method; type: functional; conditions: MTCC 4755, 24 h
[29] = test system: Candida albicans; assay: Fungicidal activity against Candida albicans MTCC 183 incubated for 24 hrs followed by transfer of microbial suspension to Sabouraud dextrose agar plates and measured after 24 hrs post transfer; type: functional; conditions: MTCC 183, 24 h
[30] = test system: Candida albicans; assay: Fungicidal activity against Candida albicans MTCC 227 incubated for 24 hrs followed by transfer of microbial suspension to Sabouraud dextrose agar plates and measured after 24 hrs post transfer; type: functional; conditions: MTCC 227, 24 h
[31] = test system: Candida albicans; assay: Fungicidal activity against Candida albicans MTCC 854 incubated for 24 hrs followed by transfer of microbial suspension to Sabouraud dextrose agar plates and measured after 24 hrs post transfer; type: functional; conditions: MTCC 854, 24 h
[32] = test system: Candida albicans; assay: Fungicidal activity against Candida albicans MTCC 1637 incubated for 24 hrs followed by transfer of microbial suspension to Sabouraud dextrose agar plates and measured after 24 hrs post transfer; type: functional; conditions: MTCC 1637, 24 h
[33] = test system: Candida albicans; assay: Fungicidal activity against Candida albicans MTCC 3017 incubated for 24 hrs followed by transfer of microbial suspension to Sabouraud dextrose agar plates and measured after 24 hrs post transfer; type: functional; conditions: MTCC 3017, 24 h
[34] = test system: Candida albicans; assay: Fungicidal activity against Candida albicans MTCC 3018 incubated for 24 hrs followed by transfer of microbial suspension to Sabouraud dextrose agar plates and measured after 24 hrs post transfer; type: functional
[35] = test system: Candida albicans; assay: Fungicidal activity against Candida albicans MTCC 3958 incubated for 24 hrs followed by transfer of microbial suspension to Sabouraud dextrose agar plates and measured after 24 hrs post transfer; type: functional
[36] = test system: Candida albicans; assay: Fungicidal activity against Candida albicans MTCC 4748 incubated for 24 hrs followed by transfer of microbial suspension to Sabouraud dextrose agar plates and measured after 24 hrs post transfer; type: functional
[37] = test system: Candida albicans; assay: Fungicidal activity against Candida albicans MTCC 7315 incubated for 24 hrs followed by transfer of microbial suspension to Sabouraud dextrose agar plates and measured after 24 hrs post transfer; type: functional; conditions: MTCC 7315, 24 h
[38] = test system: Candida parapsilosis; assay: Fungicidal activity against Candida parapsilosis MTCC 1744 incubated for 24 hrs followed by transfer of microbial suspension to Sabouraud dextrose agar plates and measured after 24 hrs post transfer; type: functional; conditions: Lodderomyces parapsilosis, MTCC 1744, 24 h
[39] = test system: [Candida] aaseri; assay: Fungicidal activity against Candida aaseri MTCC 1962 incubated for 24 hrs followed by transfer of microbial suspension to Sabouraud dextrose agar plates and measured after 24 hrs post transfer; type: functional; conditions: Yamadazyma aaseri, MTCC 1962, 24 h
[40] = test system: Nakaseomyces glabratus; assay: Fungicidal activity against Candida glabrata MTCC 3019 incubated for 24 hrs followed by transfer of microbial suspension to Sabouraud dextrose agar plates and measured after 24 hrs post transfer; type: functional; conditions: MTCC 3019, 24 h
[41] = test system: Pichia kudriavzevii; assay: Fungicidal activity against Candida krusei MTCC 3020 incubated for 24 hrs followed by transfer of microbial suspension to Sabouraud dextrose agar plates and measured after 24 hrs post transfer; type: functional
[42] = test system: Pichia sporocuriosa; assay: Fungicidal activity against Issatchenkia hanoiensis MTCC 4755 incubated for 24 hrs followed by transfer of microbial suspension to Sabouraud dextrose agar plates and measured after 24 hrs post transfer; type: functional; conditions: MTCC 4755, 24 h
[43] = test system: Bacillus subtilis; assay: Antibiofilm activity against Bacillus subtilis MTCC 121 after 24 hrs by crystal violet staining-based assay; type: functional, organism-based; conditions: Bacillus subtilis, MTCC 121, 24 h; read-out: IC50
[44] = test system: Staphylococcus aureus; assay: Antibiofilm activity against Staphylococcus aureus MTCC 96 after 24 hrs by crystal violet staining-based assay; type: functional, organism-based; conditions: Staphylococcus aureus, MTCC 96, 24 h; read-out: IC50
[45] = test system: Staphylococcus aureus; assay: Antibiofilm activity against Staphylococcus aureus MLS16 MTCC 2940 after 24 hrs by crystal violet staining-based assay; type: functional, organism-based; conditions: Staphylococcus aureus, MLS16 MTCC 2940, 24 h; read-out: IC50
[46] = test system: Pseudomonas aeruginosa; assay: Antibiofilm activity against Pseudomonas aeruginosa MTCC 2453 after 24 hrs by crystal violet staining-based assay; type: functional, organism-based; conditions: Pseudomonas aeruginosa, MTCC 2453, 24 h; read-out: IC50
[47] = test system: Raoultella planticola; assay: Antibiofilm activity against Klebsiella planticola MTCC 530 after 24 hrs by crystal violet staining-based assay; type: functional, organism-based; conditions: Klebsiella planticola, MTCC 530, 24 h; read-out: IC50

MIC [2]: 31.2 mg/L (≈ 61.5 µM)
MIC [3]: 7.8 mg/L (≈ 15.4 µM)
MIC [4]: 15.6 mg/L (≈ 30.7 µM)
MIC [5]: 15.6 mg/L (≈ 30.7 µM)
MIC [7]: 15.6 mg/L (≈ 30.7 µM)
MIC [8]: 15.6 mg/L (≈ 30.7 µM)
MIC [15]: 3.9 mg/L (≈ 7.68 µM)
MIC [16]: 7.8 mg/L (≈ 15.4 µM)
MIC [17]: 7.8 mg/L (≈ 15.4 µM)
MIC [18]: 15.6 mg/L (≈ 30.7 µM)
MIC [19]: inactive
MIC [20]: 3.9 mg/L (≈ 7.68 µM)
MIC [21]: inactive
MIC [22]: inactive
MIC [23]: 62.5 mg/L (≈ 123 µM)
MIC [24]: 31.2 mg/L (≈ 61.5 µM)
MIC [25]: 31.2 mg/L (≈ 61.5 µM)
MIC [26]: 15.6 mg/L (≈ 30.7 µM)
MIC [27]: inactive
MIC [28]: 15.6 mg/L (≈ 30.7 µM)
IC50 [43]: 21.6 mg/L (≈ 42.6 µM)
IC50 [44]: 2.7 mg/L (≈ 5.32 µM)
IC50 [45]: 10.8 mg/L (≈ 21.3 µM)
IC50 [46]: 10.8 mg/L (≈ 21.3 µM)
SMILES: O=C(c1nc(-c2ccccc2)c2c(C(F)(F)F)cc(-c3ccccc3)nc2n1)N1CCN(CCO)CC1
MBC [1]: 31.2 mg/L (≈ 61.5 µM)
MIC [6]: 15.6 mg/L (≈ 30.7 µM)
MBC [9]: 15.6 mg/L (≈ 30.7 µM)
MBC [10]: 31.2 mg/L (≈ 61.5 µM)
MBC [11]: 31.2 mg/L (≈ 61.5 µM)
MBC [12]: 31.2 mg/L (≈ 61.5 µM)
MBC [13]: 31.2 mg/L (≈ 61.5 µM)
MBC [14]: 31.2 mg/L (≈ 61.5 µM)
MFC [29]: 7.8 mg/L (≈ 15.4 µM)
MFC [30]: 15.6 mg/L (≈ 30.7 µM)
MFC [31]: 15.6 mg/L (≈ 30.7 µM)
MFC [32]: 31.2 mg/L (≈ 61.5 µM)
MFC [33]: 7.8 mg/L (≈ 15.4 µM)
MFC [34]: inactive
MFC [35]: inactive
MFC [36]: inactive
MFC [37]: 62.5 mg/L (≈ 123 µM)
MFC [38]: 62.5 mg/L (≈ 123 µM)
MFC [39]: 62.5 mg/L (≈ 123 µM)
MFC [40]: 31.2 mg/L (≈ 61.5 µM)
MFC [41]: inactive
MFC [42]: 31.2 mg/L (≈ 61.5 µM)
IC50 [47]: 5.4 mg/L (≈ 10.6 µM)
